GI50 and TGI data for eight molecules are collected here from PubChem BioAssay (NCI).

SMILES strings stand for the structures.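 Assay format: 96-well plates, 48-hour exposure. GI50 = concentration required for 50% inhibition of growth. TGI: concentration producing complete growth inhibition.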 Where only a bound is given, the exact number is not on record here.

Some test systems named below: HS 578T breast; HL-60(TB) leukemia; COLO 205 colon; SF-268 CNS; 786-0 renal; SN12C renal; SK-MEL-5 melanoma; U251 CNS; KM12 colon; LOX IMVI melanoma.
Assay in all cases: inhibition of tumour cell growth, NCI panel, 48 h

Take `CCOC(=O)c1ccc(Nc2sc(C(=O)c3ccc(Br)cc3)c(N)c2C#N)cc1`: the GI50 with HS 578T breast was 1.48 µM; with HL-60(TB) leukemia it was 0.421 µM; with COLO 205 colon it was 0.675 µM; in the experiment with SF-268 CNS it was 2.56 µM; in the experiment on 786-0 renal it was 1.99 µM; in the experiment on SN12C renal, 4.12 µM. Moreover, the GI50 in the experiment with SK-MEL-5 melanoma was 1.02 µM; with U251 CNS, 1.49 µM; with KM12 colon, 0.775 µM; with LOX IMVI melanoma it was 1.64 µM. Further, the TGI is above 100 µM with HS 578T breast; above 25.2 µM in the experiment on HL-60(TB) leukemia; 2.47 µM in the experiment on COLO 205 colon; above 100 µM in the experiment with SF-268 CNS; above 100 µM in the experiment on 786-0 renal; above 100 µM with SN12C renal. For the same molecule, the TGI in the experiment on SK-MEL-5 melanoma, with U251 CNS, with KM12 colon and in the experiment on LOX IMVI melanoma was above 100 µM throughout.
Turning to `O=C(/C=C/c1ccco1)c1cc(F)c(Cl)cc1Cl`, the GI50 with HS 578T breast was 13.7 µM; in the experiment on HL-60(TB) leukemia, 30.8 µM; in the experiment on COLO 205 colon, 18.6 µM; with SF-268 CNS, 20 µM; in the experiment on 786-0 renal it was 22.3 µM; in the experiment on SN12C renal, 22.9 µM. Further, the GI50 in the experiment on SK-MEL-5 melanoma is 17 µM; in the experiment with U251 CNS, 19.3 µM; with KM12 colon, 19.7 µM; with LOX IMVI melanoma it was 22.4 µM. Moreover, the TGI is 39.6 µM with HS 578T breast; above 100 µM in the experiment with HL-60(TB) leukemia; 38.4 µM in the experiment with COLO 205 colon; 45.5 µM in the experiment on SF-268 CNS; 55.4 µM in the experiment on 786-0 renal; 57.5 µM in the experiment with SN12C renal. The TGI in the experiment with SK-MEL-5 melanoma was 32.5 µM; in the experiment on U251 CNS, 46 µM; in the experiment with KM12 colon, 56.4 µM; in the experiment on LOX IMVI melanoma it was 58.2 µM.
Regarding `Cc1cccc(-c2[nH]ncc2-c2ccc3ncccc3n2)n1`, the GI50 was above 14.5 µM with HS 578T breast; 10 µM in the experiment with HL-60(TB) leukemia; 6.31 µM in the experiment on COLO 205 colon; 10.5 µM in the experiment with SF-268 CNS; 11.1 µM in the experiment with 786-0 renal; 9.64 µM in the experiment on SN12C renal. Further, the GI50 in the experiment with SK-MEL-5 melanoma is 9.63 µM; in the experiment with U251 CNS, 9.54 µM; with KM12 colon it was 9.51 µM; in the experiment with LOX IMVI melanoma, 7.56 µM. Further, the TGI with HS 578T breast is above 25 µM; with HL-60(TB) leukemia it was above 23.7 µM; in the experiment with COLO 205 colon, 16.7 µM; in the experiment with SF-268 CNS, above 25 µM; with 786-0 renal, above 25 µM; with SN12C renal, above 25 µM. The TGI in the experiment on SK-MEL-5 melanoma is above 18.5 µM; with U251 CNS it was above 25 µM; in the experiment with KM12 colon, above 25 µM; in the experiment with LOX IMVI melanoma, above 25 µM.
As for `CN(C)c1ccc(/C=C/c2ccnc3c(O)cccc23)cc1`, the GI50 was 0.85 µM with HS 578T breast; 0.292 µM with HL-60(TB) leukemia; 18.5 µM in the experiment with COLO 205 colon; 0.463 µM with SF-268 CNS; 0.886 µM in the experiment with 786-0 renal; 0.529 µM with SN12C renal. For the same molecule, the GI50 in the experiment with SK-MEL-5 melanoma is 0.37 µM; in the experiment with U251 CNS, 0.338 µM; in the experiment with KM12 colon, 0.399 µM; with LOX IMVI melanoma it was 0.313 µM. In addition, the TGI in the experiment with HS 578T breast is above 100 µM; in the experiment with HL-60(TB) leukemia it was 1.75 µM; in the experiment on COLO 205 colon, above 100 µM; in the experiment with SF-268 CNS, above 100 µM; in the experiment with 786-0 renal it was above 26.2 µM; in the experiment on SN12C renal, above 100 µM. Also, the TGI with SK-MEL-5 melanoma is 3.05 µM; in the experiment on U251 CNS, above 100 µM; with KM12 colon, above 100 µM; in the experiment on LOX IMVI melanoma, above 100 µM.
Turning to `C=C(C)[C@@H]1CC[C@]2(COCCC#N)CC[C@]3(C)[C@H](CC[C@@H]4[C@@](C)(CCCNCCC#N)[C@H](C(=C)C)CC[C@]43C)[C@@H]12`, the GI50 with HS 578T breast was 21.1 µM; in the experiment with HL-60(TB) leukemia, 8.47 µM; with COLO 205 colon it was 14.6 µM; in the experiment with SF-268 CNS, 23.5 µM; in the experiment on 786-0 renal, 10.6 µM; with SN12C renal, 10 µM. Besides, the GI50 was 20.2 µM in the experiment with SK-MEL-5 melanoma, 13.9 µM in the experiment on U251 CNS, 15.6 µM in the experiment on KM12 colon and 8.47 µM in the experiment on LOX IMVI melanoma. For the same molecule, the TGI was above 50 µM with HS 578T breast; 20.5 µM in the experiment with HL-60(TB) leukemia; above 50 µM in the experiment with COLO 205 colon; above 50 µM with SF-268 CNS; 30.1 µM in the experiment on 786-0 renal; 29.2 µM in the experiment with SN12C renal. In addition, the TGI was above 50 µM in the experiment on SK-MEL-5 melanoma, 47.1 µM in the experiment with U251 CNS, above 50 µM with KM12 colon and 16.7 µM with LOX IMVI melanoma.
For the molecule `Nc1cc(F)ccc1CC(=O)O`, the TGI in the experiment on HS 578T breast, with HL-60(TB) leukemia, in the experiment with COLO 205 colon, in the experiment with SF-268 CNS, in the experiment on 786-0 renal and in the experiment on SN12C renal was above 100 µM in each case. Besides, the TGI in the experiment with SK-MEL-5 melanoma, with U251 CNS, with KM12 colon and in the experiment on LOX IMVI melanoma was above 100 µM throughout.
On to `O=C(O)/C=C/C(=O)N1Cc2cc3ccccc3nc2C1`, for which the TGI in the experiment with HS 578T breast, with HL-60(TB) leukemia, with COLO 205 colon, in the experiment on SF-268 CNS, with 786-0 renal and in the experiment with SN12C renal was above 100 µM throughout. Besides, the TGI with SK-MEL-5 melanoma, in the experiment with U251 CNS, with KM12 colon and with LOX IMVI melanoma was above 100 µM throughout.
Consider `CCOC(=O)c1ccccc1OC(=O)NNc1ccccc1`, for which the GI50 is above 31.9 µM in the experiment on HS 578T breast; 0.365 µM with HL-60(TB) leukemia; 2.45 µM in the experiment on COLO 205 colon; 12.1 µM in the experiment on SF-268 CNS; 1.18 µM in the experiment with 786-0 renal; 34.9 µM in the experiment on SN12C renal. The GI50 was 1.43 µM in the experiment with SK-MEL-5 melanoma, above 35.6 µM with U251 CNS, 0.173 µM in the experiment on KM12 colon and 5 µM in the experiment with LOX IMVI melanoma. Further, the TGI is above 100 µM with HS 578T breast; above 100 µM in the experiment on COLO 205 colon; above 100 µM with SF-268 CNS; above 100 µM in the experiment on 786-0 renal; above 100 µM with SN12C renal; above 33.2 µM in the experiment on SK-MEL-5 melanoma. The figures for the TGI in the experiment on U251 CNS, in the experiment with KM12 colon and with LOX IMVI melanoma were above 100 µM, above 56.4 µM and above 100 µM, respectively.
